Test systems include HT29 colon; A549 NSCLC; MDA-MB-435; KM12 colon; OVCAR-5 ovarian; 786-0 renal; OVCAR-3 ovarian; SF-539 CNS; UACC-257 melanoma; NCI-H522 lung.
Assay in all cases: NCI anticancer screen, dose series, 48 h

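All cell lines were grown in 96-well plates and treated with compound for 48 hours. Abbreviation: GI50, concentration required for 50% inhibition of growth. TGI is the concentration that stops growth completely.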

Consider `COC(=O)C1=C(OC(=O)c2ccccc2)C(C(=O)OC)[C@]2(O)[C@@H](C(=O)OC)[C@H]1C[C@@H](c1ccccc1)[C@@H]2C(=O)OC` (stereo partly specified), for which the TGI in the assay with HT29 colon was 30.7 µM; in the assay on A549 NSCLC it was 34.5 µM; in the assay on MDA-MB-435, 10.8 µM; in the assay on KM12 colon, above 100 µM; with OVCAR-5 ovarian, 73.9 µM; with 786-0 renal, 93.8 µM. Also, the TGI in the assay with OVCAR-3 ovarian was found to be 57.4 µM; in the assay with SF-539 CNS it was 14.6 µM; in the assay with UACC-257 melanoma it was 84.6 µM.

As to `CCOC(=O)CSc1nnc(C(Sc2nc(-c3ccccc3)c(-c3ccccc3)[nH]2)C(C)C)n1-c1ccccc1` (stereo unspecified), the TGI in the assay on HT29 colon is 19.4 µM; in the assay with A549 NSCLC, above 31.6 µM; with NCI-H522 lung, 26.9 µM; in the assay on KM12 colon, above 31.6 µM; in the assay on OVCAR-5 ovarian, 28.5 µM; in the assay on 786-0 renal it was above 31.6 µM. The TGI in the assay with OVCAR-3 ovarian is above 10 µM; in the assay on SF-539 CNS it was 18.8 µM; in the assay on UACC-257 melanoma, 19.3 µM.

For `CCCc1ccc(NCc2cc(OC)c(OC)c(OC)c2)cc1`, the TGI in the assay on HT29 colon was 61.7 µM; in the assay on A549 NSCLC, above 100 µM; with NCI-H522 lung it was 34.3 µM; with KM12 colon it was 55.2 µM; in the assay with OVCAR-5 ovarian it was above 100 µM; in the assay on 786-0 renal, 50.3 µM. Moreover, the figures for the TGI in the assay with OVCAR-3 ovarian, with SF-539 CNS and with UACC-257 melanoma were 54.4 µM, 63.3 µM and 74.7 µM, respectively. The results for the GI50 in the assay on NCI-H522 lung and in the assay on OVCAR-3 ovarian were 17.3 µM and 19 µM, respectively.

Consider `COC(=O)c1cnn2c1n[n+]([O-])c1ccccc12`, for which the TGI with HT29 colon, in the assay with A549 NSCLC, with NCI-H522 lung, with MDA-MB-435, in the assay with KM12 colon and with OVCAR-5 ovarian was above 100 µM in each case. In addition, the TGI in the assay on 786-0 renal, in the assay with OVCAR-3 ovarian and in the assay with UACC-257 melanoma was above 100 µM throughout.

For the molecule `COc1ccc2oc(=N)c(C(=O)Nc3ccccn3)cc2c1`, the TGI in the assay on HT29 colon, in the assay with A549 NSCLC, in the assay on MDA-MB-435, in the assay on KM12 colon, in the assay on OVCAR-5 ovarian and in the assay with 786-0 renal was above 100 µM each time. For the same molecule, the TGI in the assay with OVCAR-3 ovarian and in the assay with UACC-257 melanoma was above 100 µM each time.

As for `Cc1ccc(N=Nc2c(O)c(C(=O)Nc3ccccc3)cc3ccccc23)c([N+](=O)[O-])c1`, the TGI in the assay on HT29 colon, in the assay on A549 NSCLC, in the assay with NCI-H522 lung, in the assay on MDA-MB-435, with KM12 colon and with OVCAR-5 ovarian was above 100 µM throughout. In addition, the TGI in the assay on 786-0 renal, in the assay on OVCAR-3 ovarian and in the assay with UACC-257 melanoma was above 100 µM each time.

Turning to `COc1ccc(-n2cnc3c(NC(CCSC)C(=O)O)ncnc32)cc1` (stereo unspecified), the TGI in the assay on HT29 colon, with A549 NSCLC, with NCI-H522 lung, with MDA-MB-435, in the assay with KM12 colon and in the assay on OVCAR-5 ovarian was above 100 µM in each case. The TGI in the assay with 786-0 renal, in the assay on OVCAR-3 ovarian and with UACC-257 melanoma was above 100 µM in each case.

Regarding `O=C(CSC1=NCCN1)Nc1ccccc1`, the TGI in the assay with HT29 colon is above 100 µM; with A549 NSCLC it was above 100 µM; with NCI-H522 lung, 38.7 µM; with MDA-MB-435, above 100 µM; in the assay with KM12 colon it was above 100 µM; with OVCAR-5 ovarian, above 100 µM. The TGI in the assay with 786-0 renal was 50.1 µM; with OVCAR-3 ovarian, 51.4 µM; in the assay on UACC-257 melanoma it was 40.2 µM.

As for `CC(C)(CC(O)C#N)/[N+]([O-])=[N+](\[O-])C(C)(C)CC(O)C#N` (stereo unspecified), the TGI in the assay with HT29 colon was above 100 µM; in the assay on A549 NSCLC, above 100 µM; with NCI-H522 lung, 35.4 µM; in the assay with MDA-MB-435, above 100 µM; with KM12 colon, above 100 µM; with OVCAR-5 ovarian, 97.2 µM. The TGI in the assay on 786-0 renal came to 47.5 µM; with OVCAR-3 ovarian, 69.2 µM; in the assay with UACC-257 melanoma, 58.1 µM.

`O=C1C[C@@H](c2ccccc2)O[C@@H](c2ccccc2)C1`: the TGI with HT29 colon, in the assay on A549 NSCLC, in the assay on MDA-MB-435, in the assay with KM12 colon, in the assay on OVCAR-5 ovarian and in the assay with 786-0 renal was above 100 µM in each case. Also, the TGI in the assay with OVCAR-3 ovarian, in the assay with SF-539 CNS and in the assay on UACC-257 melanoma was above 100 µM throughout.

With `CC(C)(C)OC(=O)NCCC1CN(C(=O)c2ccccc2)c2ccccc21` (stereo unspecified), the TGI with HT29 colon is 63.7 µM; with A549 NSCLC, above 100 µM; with NCI-H522 lung it was 64.2 µM; in the assay with MDA-MB-435, 84.7 µM; with KM12 colon, above 100 µM; in the assay with OVCAR-5 ovarian, above 100 µM. Moreover, the results for the TGI in the assay on 786-0 renal, in the assay with OVCAR-3 ovarian and in the assay on UACC-257 melanoma were above 100 µM, 65.3 µM and 75.2 µM, respectively.

As to `Nc1ccc(C(=O)NN2C(=O)C(Cl)C2c2ccccc2)cc1` (stereo unspecified), the TGI in the assay with HT29 colon, in the assay with A549 NSCLC, with NCI-H522 lung, in the assay on KM12 colon, with OVCAR-5 ovarian and in the assay on 786-0 renal was above 100 µM throughout. In addition, the TGI in the assay on OVCAR-3 ovarian, with SF-539 CNS and in the assay on UACC-257 melanoma was above 100 µM throughout.

As for `Cc1n[nH]c(=O)n1/N=C/c1ccc([N+](=O)[O-])o1`, the TGI came to 30.1 µM in the assay with HT29 colon; 35.7 µM in the assay with A549 NSCLC; 18.6 µM in the assay with MDA-MB-435; 29.3 µM in the assay on KM12 colon; 53.1 µM in the assay on OVCAR-5 ovarian; 36.3 µM in the assay with 786-0 renal. Besides, the TGI is 17.8 µM with OVCAR-3 ovarian, 37.1 µM with SF-539 CNS and 27.7 µM in the assay with UACC-257 melanoma.

`CCOC(=O)c1ccc(C(=O)C(C(C)=O)C(=O)OC(C)(C)C)[nH]1` (stereo unspecified): the TGI with HT29 colon, in the assay with A549 NSCLC, with NCI-H522 lung, in the assay on MDA-MB-435, in the assay with KM12 colon and in the assay with OVCAR-5 ovarian was above 100 µM each time. The TGI in the assay with 786-0 renal and in the assay on OVCAR-3 ovarian was above 100 µM in each case.

(Values after PubChem BioAssay (NCI).)
